Data taken from a melting point compilation (Tetko et al.; mined from patent text by program, amines drawn as free bases though some values may be those of a salt).

melting point [°C] | Compound
140 to 141 | O=C(Cc1ccc2ccn(C3CCN(CCc4ccc(F)cc4)CC3)c2c1)NCCO
227 to 228 | O=C1c2ccccc2CCC1CN1CCC(O)(c2ccc(Cl)cc2)CC1 (stereo not drawn)
50 to 51 | C=CCOc1cccc(C[C@H](NC(=O)OC(C)(C)C)C(=O)OC)c1
128 to 130 | CC(C)ON=Cc1nn(-c2c(Cl)cc(C(F)(F)F)cc2Cl)c(N)c1S(C)=O (stereo not drawn)
154 to 157 | N#Cc1c(Br)c(Br)n(C(=O)c2ccc(Cl)cc2)c1Br
87 to 88.5 | O=C(O)Cc1cc(Br)ccc1OCc1ccccc1
184 to 186 | Cc1ccc(C2CCN(C(=O)Nc3ccc4nc(CN(C(C)C)C(C)C)ccc4c3)CC2)cc1
161 to 162 | COC(=O)C1=CC=C(/C=C/c2ccc(OC)cc2)C2=CC(C(C)C)=CC=C(C)C2=C1C(=O)OC
> 320 | Nc1nc2c(sc(=O)n2Cc2ccccc2)c(=O)[nH]1
120 to 122 | O=S(=O)(CCN1CCOCC1)OCCOc1ccn(-c2ccc(Cl)c(Cl)c2)n1
77 to 78 | COC(=O)c1c(OC)ccc([N+](=O)[O-])c1OC
257 | CC(=O)Nc1nc2c(s1)-c1nc(-c3ccccc3Cl)ncc1C2
125 to 126 | CC(=O)c1cc(S)c(Cl)cc1CC(=O)OCF
214 to 216 | COc1ccc(-c2cc(C#N)c3cc(O)ccc3c2)cc1F
197 | C#Cc1cc2c(Nc3ccc(OCc4cccc(F)c4)c(Cl)c3)ncnc2s1
232 to 234 | Fc1cccc2nc(S)oc12
110 to 113 | CCCCNC(=O)NS(=O)(=O)c1ccccc1-c1ccno1
285 to 288 | O=CN1CCN(S(=O)(=O)CCCOc2ccc3c(c2)CC2NC(=O)NC2=N3)CC1 (stereo not drawn)
142 to 146 | CCc1ccc(Nc2ncc(Cc3ccc(OC)nc3)c3ncccc23)cc1Br
114 to 115 | CCC1(CCCCN2CCN(c3ccccn3)CC2)C(=O)Nc2ccc(Br)cc21 (stereo not drawn)
158 to 160 | CC(=O)c1cn(C(c2ccccc2)(c2ccccc2)c2ccccc2)cn1
204 to 206 | CCNC(=O)Nc1cn2ccc(-c3c(C)noc3C)cc2n1
101 to 102 | N#Cc1ccc(CCCCC(=O)O)cc1
166 to 168 | c1ccc2c(Cn3c(-c4ccc5c(c4)OCO5)nc4ccccc43)cccc2c1
196 to 197 | NC(=O)c1cccc(O)c1F

melting point [°C] | Compound
263 to 265 | O=C(CN1CCN(c2ccc(C(=O)O)cc2)CC1)Nc1ccc(Cl)cc1
94 to 95 | CN(C)S(=O)(=O)Oc1c(I)cc(C(C)(C)C)cc1CN
123 to 125 | OC(c1cccs1)C1CCN(CCc2ccccc2)CC1 (stereo not drawn)
200 to 205 | Cn1cc(CS(C)(=O)=O)c(=O)c2cc(F)ccc21
149 to 151 | O=C(O)Cc1ccccc1SCc1ccc(Cl)cc1
170 | Cc1cc(C(=O)NCc2ccccc2)c(N)s1
47 to 48 | COc1ccccc1NC(=O)C(C)(C)CCCOc1cc(C)ccc1C
94 to 96 | CCOC(=O)c1oc2cccc(OCC(C)O)c2c1C (stereo not drawn)
57 to 59 | O=C(O)c1ccc(S(=O)(=O)Oc2ccc(CCc3c(Cc4ccccc4)sc4ccccc34)cc2)cc1O
165 to 166 | CN1CC(OC(=O)c2ccccc2)N(N2CC=C(C(C)(C)C)O2)C1=O (stereo not drawn)
140 | COc1cc(OC)c(OC)cc1C=CC=O
121 to 124 | COC(=O)c1cc2nc(C)oc2cc1C(=O)OC
44 to 45 | CCOC(=O)C(F)(F)C(I)c1ccc(OC)cc1 (stereo not drawn)
226 to 228 | CC(=O)c1ccc(OCCCCCOc2ccc3c(=O)cc(C(=O)O)oc3c2)cc1O
142 to 145 | CN(C)C(N)=NC(=O)C(Br)c1c(Cl)cccc1Cl (stereo not drawn)
60 to 61 | CCCCC(CNc1nc(C)c(O)c(C(C)C)n1)c1ccccc1 (stereo not drawn)
128 to 130 | O=C(c1ccc2nonc2c1)N1C2CCCC1COC2
209 to 210 | CCOCC(C)(C)COc1ccc(-c2ccc3c(c2)C=C(C(=O)Nc2ccc(CN(C)C4CCOCC4)cc2)CCS3(=O)=O)cc1
200 to 202 | Cc1ccc(-c2ccc(S(C)(=O)=O)cc2)n1-c1ccc(-c2ccoc2)cc1
266 to 270 | CC(C(=O)O)=C1CCC2C3CCC4=CC(=O)CCC4(C)C3CCC12C (stereo not drawn)
113 to 115 | COc1ccc(S(=O)(=O)Nc2ccccc2Cl)cc1OC1CCCC1
163 | COc1ccc2c(=O)c(OS(C)(=O)=O)cn(C)c2c1
146 to 150 | Cc1nn2c(-c3ccc(Cl)cc3Cl)cccc2c1[N+](=O)[O-]
247 to 249 | CN(Cc1ccc(NC(=O)C2=Cc3cc(-c4ccc(C(C)(C)C)cc4)ccc3S(=O)(=O)CC2)cc1)C1CCOCC1
79 to 86 | COc1cc2c(cc1Nc1ncc(Cl)c(Nc3ccccc3S(=O)(=O)N(C)C)n1)CCN(Cc1nccn1C)CC2

melting point [°C] | Compound
236 to 237 | COc1ccc(N2CCOCC2)cc1NC(=S)c1nc2ccccc2[nH]1
195 to 197 | NC1c2ccccc2CC12C(=O)Nc1ccccc12 (stereo not drawn)
267 to 269 | c1cn2cnnc2c2cc3c(cc12)OCO3
75 | OCCCc1cn(Cc2ccccc2)c2ccccc12
167 to 169 | COc1cc2c(cc1OC)C(C(=O)O)SCC2 (stereo not drawn)
132 to 135 | Cc1nn(-c2cc(C(=O)O)c(Cl)cc2F)c(=O)n1C(F)F
240 to 246 | O=C(Nc1ccc(-n2nc(C3CC3)cc2C2CC2)cc1)c1ccc2nn[nH]c2c1
130 to 134 | COC(=O)c1ccc(Oc2ccc(O)cc2)cc1
109 to 110 | CC(C)(C)OC(=O)c1c(Cl)cc(N2C(=O)N3CCCC3(Cc3ccc(Br)cc3)C2=O)cc1Cl (stereo not drawn)
197 to 198 | O=C(O)C1=CC2C(=O)NC(=O)C2(CCO)C=C1 (stereo not drawn)
153 to 155 | O=C(O)c1cc(-c2nccs2)[nH]c1C(CC1CCOCC1)c1ccc(S(=O)(=O)C2CC2)cc1 (stereo not drawn)
223 to 224 | O=C(c1ccccc1)c1[nH]c2cc(Cl)ccc2c1CC(=O)N1CCCCC1
186 to 189 | COc1ccc2c(c1)C1(O)C(=O)c3ccccc3C1(O)O2 (stereo not drawn)
48 to 49 | C#CCCCOc1c(C)cc(C#N)cc1C
171 to 173 | Cc1onc(-c2cccc(Cl)c2)c1C(=O)O
137 to 138 | Cc1nc(N2CCN(CCC3CC3)C2=O)sc1C(=O)NCc1ccccc1
134 to 136 | COCc1cn(Cc2ccccc2)c(=O)[nH]c1=O
171 to 173 | COc1cc(Oc2ccc(S(C)(=O)=O)cn2)cc2cc(C3=NCC(CC(C)(C)O)S3)[nH]c12 (stereo not drawn)
133 to 137 | COC(=O)c1sc2c(c1O)CSC2
122 to 124 | CCOC(=O)c1ccc(OCCCCCCCCCCC2c3c(c4ccccc4c4ccccc34)-c3c2c2ccccc2c2ccccc32)cc1
200 to 202 | O=C(NCc1ccc2cc(O)ccc2c1)c1cc2ccccc2o1
202 to 203 | NC(=O)c1ccc(O[C@@H]2CNC[C@H]2O)cc1 (relative stereo)
103 to 107 | O=C(c1c[nH]c2cc(C#Cc3ccccc3)ccc12)C1CSC(c2cccnc2)N1 (stereo not drawn)
176 to 178 | Cn1cc2c(n1)CCCc1c-2cnn1C
258 to 259 | CCOCc1nc2c(N)nc3cc(OCc4nc5ccccc5s4)ccc3c2n1CC(C)(C)NS(C)(=O)=O

melting point [°C] | Compound
110 | CCOC(=O)c1sc2c(c1OC(C)=O)CN(Cc1ccccc1Cl)CC2
108 to 110 | CCCc1cc(O)nc(NCC)n1
181 to 182 | C=Cc1cc(S(=O)(=O)c2ccc(N)cc2)cc(N2CCCC2)n1
72 to 75 | CCCc1c(OCC(O)CSc2nnc(SCC(=O)O)s2)ccc(C(C)=O)c1O (stereo not drawn)
137 to 138 | COc1ccc(-c2ccc(C=O)c3ccccc23)cc1F
95 to 97 | c1cc2c3c(cccc3c1)C(NCCCCCCCCCCCCn1ccnc1)=N2
205 | CC(=O)c1ccc(N=C(C)c2ccccc2)cc1
188 | CC(C)(C)OC(=O)NC(Cc1ccccc1)C(=O)Oc1ccc(/C=c2\[nH]c(=O)/c(=C/c3ccccc3)[nH]c2=O)nc1 (stereo not drawn)
168 to 170 | COc1ccc(-c2ccc(O)cc2C=O)cc1Cl
104 to 105 | CS(=O)(=O)NC(=O)C1(CCCCCCCCCCCCC2(C(=O)NCCO)CC2)CC1
223 to 230 | CCOC(=O)c1cn(-c2nc(N)c(F)cc2F)c2c(F)c(F)c(F)c(F)c2c1=O
81 to 83 | O=[N+]([O-])c1ccc([N+](=O)[O-])c(OCC=CCBr)c1
115 to 117 | COc1ccc(C=O)c(Br)c1Oc1ccc([N+](=O)[O-])cc1
165 to 169 | CCCCCNc1nc(C)c(C(=O)c2ccc(N)c([N+](=O)[O-])c2)s1
112 | CC(c1ccc(N2CCCC2)cc1)c1ccc(N2CCCC2)cc1
178 to 179 | Cc1cc(C)c2nc(CO)n(C)c2n1
83 to 84 | CCN(CC)C(=O)n1cc(Br)c(S(=O)(=O)c2cc(C)ccc2C)n1
93.1 to 93.7 | O=C(Nc1cccc(C(F)(F)F)c1)c1cccc(Oc2cccc(C(F)(F)F)c2)n1
178 to 180 | CCCc1cc(O)cc2cc(-c3ccc(O)cc3)oc12
71 to 71.5 | O=CC1=C(c2ccc(Cl)c(Cl)c2)C2CCC1CC2
89 to 91 | Nc1cccc(SC(CCc2ccc(Cl)cc2)Cn2ccnc2)c1 (stereo not drawn)
95 to 96 | CC(C)(C)OC(=O)NC(CO)C(c1ccccc1)c1ccccc1 (stereo not drawn)
137 to 138 | CCOC(=O)c1ccc(C#Cc2ccc3c(c2)C(C)(C)CCC3(C)C)cc1
75 to 79 | O=C1CCC(c2ccccc2)(C2CCNC2)CC1 (stereo not drawn)
129 to 130 | CCC(=O)Nc1c(C(=O)c2cccc(Cl)c2)[nH]c2cc(Cl)ccc12

Compound | melting point [°C]
CNC(=O)ON(Cc1ccc(OCc2ccccc2)cc1)C(C)=O | 101 to 102
CC(C)(C)OC(=O)N1CCC(C#N)(c2ccccc2Cl)CC1 | 165 to 166
C[C@@H]1C(=O)C[C@H]2C[C@@H]1OO[C@@]2(C)/C=C\c1ccc(Br)c2ccccc12 | 167
